# US11685741B2, “Fluorescent probes” (University of Massachusetts, priority 2017, dated 2023)
# Key:
# [1] = tested on: Bovine aortic endothelial cells (BAEC); assay: Confocal imaging of Fe2+ in BAEC cells; format: cell-based; conditions: for fluorescence of cells with sensor only / fluorescence of cells treated with Fe^2+ then Bpy: 10 μM sensor; for fluorescence of cells treated with Fe^2+ then Bpy: 100 μM Fe^2+ overnight, versus Fe^2+ supplement; for fluorescence of cells treated with Fe^2+ then Bpy / fluorescence of Bpy-treated cells: 1 mM Bpy; for fluorescence of Fe^2+-treated cells versus unsupplemented: 100 μM ferrous ammonium sulfate overnight, then 10 μM sensor 30 min; for fluorescence of Bpy-treated cells: versus control cells
# Experimental: Bovine aortic endothelial cells BAEC cells, at an approximately density of 1.3 million/ml in complete EBM medium, were incubated with 100 μM ferrous ammonium sulfate (FAS, Fe (NH4)2(SO4)2 from a 10 mM stock solution) for overnight at 37° C. in a humid atmosphere of 5% CO2 and then the cells were washed with fresh EBM medium to remove excess Fe^2+. Then cells were incubated with Rh101D (10 μM, from 500 μM stock solution in DMF) at 37° C. for 30 min and then cells were washed with EBM media and then imaged. In addition, some cells were treated firstly with 100 μM Fe^2+ overnight and then the cells were washed with fresh EBM medium. For chelation experiments, Fe^2+-loaded cells or untreated cells were incubated with 1 mM 2,2′-bipyridyl (Bpy) at 37° C. for 30 min, then sensor was added followed by washing with the media, and then imaging was done. Controls were imaged without incubation with Fe^2+ or 2,2′-bipyridyl. HCT-116, a human colon adenocarcinoma cell line were used for concentration determination of Fe^2+ with the help of the ratiometric sensor Rh101D. HCT-116 were maintained in McCoy's 5A medium supplemented with 10% fetal bouvine serum and 5% antibiotic antimycotic in a 5% CO2 atmosphere at 37° C. Cultures were divided 1:2 every 48 h to an approximate cell density of 1.21 million cells/ml and used for experiments after 24 h. All experiments were performed with cells in the logarithmic growth phase.
# A Zeiss LSM 710 laser-scanning confocal microscope system was used for cell imaging experiments in collaboration with a person in the lab. 40× oil-immersion objective lens were used to perform all the experiments. For imaging with the Rh101D sensor, excitation wavelength of the laser was 543 nm and emissions were collected over the range 545-625 nm. For images with MitoTracker Green FM, LysoTracker Deep Red, excitation wavelengths recommended by the manufacturer were 488 nm for MitoTracker, 633 nm for LysoTracker. Emissions were integrated at 492-535 nm (MitoTracker), 650-800 nm (LysoTracker), respectively.
# The ability of Rh101D to detect Fe^2+ in live bovine aortic endothelial cells (BAEC) was investigated by confocal microscopy. […] For Fe^2+ repleting conditions, live BAEC cells were incubated with 100 μM of ferrous ammonium sulfate (Fe (NH4)2(SO4)2) at 37° C. for overnight followed by washing with EBM medium to remove excess Fe^2+ and then 10 μM of Rh101D was added to the culture media and was incubated at 37° C. for 30 min. […] For Fe^2+-depleting conditions, 2,2-bipyridyl (Bpy) which is known to be a selective Fe^2+-chelator was used to chelate Fe^2+[33]. […] This fluorescent intensity is almost the same as that of cells without Fe^2+ or Bpy treatment.
# To explore this, the distribution of exchangeable Fe^2+ pools in live BAEC cells were further investigated using Rh101D, together with colocalization experiments using other dyes—MitoTracker Green FM (a green fluorescent dye which localizes to mitochondria in live cells regardless of mitochondrial membrane potential) and LysoTracker Deep Red (a fluorescent dye that stains acidic compartments such as endosomes and lysosomes in live cells). BAEC cells (without Fe^2+ treatment) were treated with Rh101D, MitoTracker Green FM, and […].
# Bovine aortic endothelial cells (BAEC) were grown at 37° C. in a humid atmosphere of 5% CO2 atmosphere in Endothelial Basal Medium (EBM, Lonza) supplemented with 5% fetal bovine serum (FBS, ATCC). Cultures were divided into 1:2 every 48 h to an approximate cell density of 1.3 million cells/ml and used for experiments after 24 h.
# A Zeiss LSM 710 laser-scanning confocal microscope system was used for cell imaging experiments in collaboration with a person in the lab. 40× oil-immersion objective lens were used to perform all the experiments. For imaging with the NIRh-Fret sensor, excitation wavelength of the laser was 633 nm and emissions were collected over the range 650-850 nm. […]
# [2] = Solubility of sensor noted in NMR studies; format: physicochemical; conditions: NMR sample solution
# Text: The binding site of Fe^2+ on Rh101D was investigated by 2D NMR. […] COSY NMR spectra are of sufficient resolution for the assignment of the peaks in the aromatic region (FIG. 44). After adding Fe^2+ to Rh101D, all the ^1H NMR signals were broadened.
# In order to probe the binding site of Fe^2+ on the NIRh-Fret sensor, 1D and 2D ^1H NMR of the sensor NIRh-Fret was investigated first. […] The assignment of the ^1H NMR peaks was based on 2D ^1H-^1H COSY spectra.
# [3] = tested on: cells in the culture experiments; assay: Cell permeability and toxicity in the culture experiments; format: cell-based; conditions: for cell permeability: live cells in culture
solubility [2],SMILES,fluorescence of cells with sensor only [1],fluorescence of cells treated with Fe^2+ then Bpy [1],fluorescence of Fe^2+-treated cells versus unsupplemented [1],fluorescence of Bpy-treated cells [1],cell permeability [3],toxicity for cells ([3]; culture experiments)
limited solubility,"CCN(CC)c1ccc2c(c1)OC1=C(CCC/C1=C\C=C1\N(C)c3ccccc3C1(C)C)C21c2ccccc2C(=O)N1/N=C\C=C\c1ccc(N(C)C)cc1 (stereo not shown) [NIRh-Fret, (E)-6′-(diethylamino)-2-(((1Z,2E)-3-(4-(dimethylamino)phenyl)allylidene)amino)-4′-(2-((E)-1,3,3-trimethylindolin-2-ylidene)ethylidene)-1′,2′,3′,4′-tetrahydrospiro[isoindoline-1,9′-xanthen]-3-one]",weak fluorescence,marked decrease in fluorescent intensity,significant increase in fluorescent signals,decrease in fluorescence intensity,,
limited solubility,CN(C)c1ccc(/C=C/C=N/N2C(=O)c3ccccc3C23c2cc4c5c(c2Oc2c3cc3c6c2CCCN6CCC3)CCCN5CCC4)cc1 [Rh101D],weak fluorescence,marked decrease in fluorescent intensity,significant increase in fluorescent signals,decrease in fluorescence signal,cell permeable,
,"CCN(CC)c1ccc2c(c1)Oc1cc(N(CC)CC)ccc1C21c2ccccc2C(=O)N1CC/N=C(\C)c1cccc(C(C)=O)n1 [Rh-PK, (E)-2-(2-((1-(6-acetylpyridin-2-yl)ethylidene)amino)ethyl)-3′,6′-bis(diethylamino)spiro[isoindoline-1,9′-xanthen]-3-one]",,,,,excellent cell permeability,non-toxic
